Reference: patent US8541460B2, “PDK-1/Akt signaling inhibitors” (The Ohio State University, priority 2003, dated 2013)

Legend:
Assay type in all cases: cell-based
HCT-15 = test: NCI DTP cell line screen (SRB), Colon Cancer
SK-MEL-28 = test: NCI DTP cell line screen (SRB), Melanoma
Method: (§1) Screening of compounds 70 and 71 against several cancer cell lines The human tumor cell lines of the cancer screening panel are grown in RPMI 1640 medium containing 5% fetal bovine serum and 2 mM L-glutamine. For a typical screening experiment, cells are inoculated into 96 well microtiter plates in 100 μL at plating densities ranging from 5,000 to 40,000 cells/well depending on the doubling time of individual cell lines. After cell inoculation, the microtiter plates are incubated at 37° C., 5% CO2, 95% air and 100% relative humidity for 24 h prior to addition of experimental drugs.
(§2) After 24 h, two plates of each cell line are fixed in situ with TCA, to represent a measurement of the cell population for each cell line at the time of drug addition (Tz). Experimental drugs are solubilized in dimethyl sulfoxide at 400-fold the desired final maximum test concentration and stored frozen prior to use. At the time of drug addition, an aliquot of frozen concentrate is thawed and diluted to twice the desired final maximum test concentration with complete medium containing 50 μg/ml gentamicin. Additional four, 10-fold or ½ log serial dilutions are made to provide a total of five drug concentrations plus control. Aliquots of 100 μl of these different drug dilutions are added to the appropriate microtiter wells already containing 100 μl of medium, resulting in the required final drug concentrations.
(§3) Following drug addition, the plates are incubated for an additional 48 h at 37° C., 5% CO2, 95% air, and 100% relative humidity. For adherent cells, the assay is terminated by the addition of cold TCA. Cells are fixed in situ by the gentle addition of 50 μl of cold 50% (w/v) TCA (final concentration, 10% TCA) and incubated for 60 minutes at 4° C. The supernatant is discarded, and the plates are washed five times with tap water and air dried. Sulforhodamine B (SRB) solution (100 μl) at 0.4% (w/v) in 1% acetic acid is added to each well, and plates are incubated for 10 minutes at room temperature. After staining, unbound dye is removed by washing five times with 1% acetic acid and the plates are air dried. Bound stain is subsequently solubilized with 10 mM trizma base, and the absorbance is read on an automated plate reader at a wavelength of 515 nm. For suspension cells, the methodology is the same except that the assay is terminated by fixing settled cells at the bottom of the wells by gently adding 50 μl of 80% TCA (final concentration, 16% TCA). Using the seven absorbance measurements [time zero, (Tz), control growth, (C), and test growth in the presence of drug at the five concentration levels (Ti)], the percentage growth is calculated at each of the drug concentrations levels. Percentage growth inhibition is calculated as: [(Ti−Tz)/(C−Tz)]×100 for concentrations for which Ti>/=Tz [(Ti−Tz)/Tz]×100 for concentrations for which Ti<Tz
(§4) Three dose response parameters are calculated for each experimental agent. […] The drug concentration resulting in total growth inhibition (TGI) is calculated from Ti=Tz. […] Values are calculated for each of these three parameters if the level of activity is reached; however, if the effect is not reached or is exceeded, the value for that parameter is expressed as greater or less than the maximum or minimum concentration tested.
(§5) The methods described were used to test compounds 70 and 71 on a panel of sixty cell lines under a screening service provided by the Developmental Therapeutics Program at the National Institutes of Health. Shown in FIG. 1C are 1, RPMI-8226 leukemia cells; 2; NCI-H322M non-small cell lung cancer cells; 3, HT29 colon cancer cells; 4, U251 CNS cancer cells; 5, SK-MEL-28 melanoma cancer cells; 6, SK-OV-3 ovarian cancer cells; 7, RXF 393 renal cancer cells; 8, PC-3 prostate cancer cells; 9, MDA-MB-231 breast cancer cells.

M14 = test: NCI DTP cell line screen (SRB), Melanoma
Method: as §1, §2, §3, §4, §5

LOX IMVI = test: NCI DTP cell line screen (SRB), Melanoma
Method: as §1, §2, §3, §4, §5

SK-MEL-2 = test: NCI DTP cell line screen (SRB), Melanoma
Method: as §1, §2, §3, §4, §5

A498 = test: NCI DTP cell line screen (SRB), Renal Cancer
Method: as §1, §2, §3, §4, §5

SN12C = test: NCI DTP cell line screen (SRB), Renal Cancer
Method: as §1, §2, §3, §4, §5

NCI-H460 = test: NCI DTP cell line screen (SRB), Non-Small Cell Lung Cancer
Method: as §1, §2, §3, §4, §5

[1] = read-out: LC50 (the source's name)

## N=C(N)Nc1ccc(-n2nc(C(F)(F)F)cc2-c2ccc3c(ccc4ccccc43)c2)cc1 [Compound 71, 4-[5-(2-Phenanthrenyl)-3-(trifluoromethyl)-1H-pyrazol-1-yl]-phenyl-guanidine]
HCT-15
  GI50: 1.54 µM
  TGI: 2.87E−06
HCT-15; Log10 Concentration −4.0
  Mean Optical Densities: 0.082
  Percent Growth: −71%
HCT-15; Log10 Concentration −5.0
  Mean Optical Densities: −0.003
  Percent Growth: −100%
HCT-15; Log10 Concentration −6.0
  Mean Optical Densities: 0.797
  Percent Growth: 84%
HCT-15; Log10 Concentration −7.0
  Mean Optical Densities: 0.779
  Percent Growth: 81%
HCT-15; Log10 Concentration −8.0
  Mean Optical Densities: 0.669
  Percent Growth: 64%
HCT-15; [1]
  CC50: 5.36 µM
SK-MEL-28
  GI50: 1.56 µM
  TGI: 2.89E−06
SK-MEL-28; Log10 Concentration −4.0
  Mean Optical Densities: 0.248
  Percent Growth: −53%
SK-MEL-28; Log10 Concentration −5.0
  Mean Optical Densities: −0.002
  Percent Growth: −100%
SK-MEL-28; Log10 Concentration −6.0
  Mean Optical Densities: 1.367
  Percent Growth: 86%
SK-MEL-28; Log10 Concentration −7.0
  Mean Optical Densities: 1.408
  Percent Growth: 90%
SK-MEL-28; Log10 Concentration −8.0
  Mean Optical Densities: 1.439
  Percent Growth: 93%
M14
  GI50: 1.48 µM
  TGI: 2.80E−06
M14; Log10 Concentration −4.0
  Mean Optical Densities: 0.210
  Percent Growth: −33%
M14; Log10 Concentration −5.0
  Mean Optical Densities: −0.004
  Percent Growth: −100%
M14; Log10 Concentration −6.0
  Mean Optical Densities: 0.816
  Percent Growth: 81%
M14; Log10 Concentration −7.0
  Mean Optical Densities: 0.823
  Percent Growth: 82%
M14; Log10 Concentration −8.0
  Mean Optical Densities: 0.772
  Percent Growth: 74%
LOX IMVI
  GI50: 1.34 µM
  TGI: 2.65E−06
LOX IMVI; Log10 Concentration −4.0
  Mean Optical Densities: 0.165
  Percent Growth: −53%
LOX IMVI; Log10 Concentration −5.0
  Mean Optical Densities: 0.008
  Percent Growth: −98%
LOX IMVI; Log10 Concentration −6.0
  Mean Optical Densities: 0.935
  Percent Growth: 72%
LOX IMVI; Log10 Concentration −7.0
  Mean Optical Densities: 1.033
  Percent Growth: 84%
LOX IMVI; Log10 Concentration −8.0
  Mean Optical Densities: 0.948
  Percent Growth: 73%
LOX IMVI; [1]
  CC50: 5.22 µM
SK-MEL-2
  GI50: 1.57 µM
  TGI: 2.91E−06
SK-MEL-2; Log10 Concentration −4.0
  Mean Optical Densities: 0.324
  Percent Growth: −29%
SK-MEL-2; Log10 Concentration −5.0
  Mean Optical Densities: −0.010
  Percent Growth: −100%
SK-MEL-2; Log10 Concentration −6.0
  Mean Optical Densities: 0.780
  Percent Growth: 87%
SK-MEL-2; Log10 Concentration −7.0
  Mean Optical Densities: 0.819
  Percent Growth: 97%
SK-MEL-2; Log10 Concentration −8.0
  Mean Optical Densities: 0.775
  Percent Growth: 85%
A498
  GI50: 16.5 µM
  TGI: 4.35E−05
A498; Log10 Concentration −4.0
  Mean Optical Densities: 0.540
  Percent Growth: −43%
A498; Log10 Concentration −5.0
  Mean Optical Densities: 1.903
  Percent Growth: 76%
A498; Log10 Concentration −6.0
  Mean Optical Densities: 1.869
  Percent Growth: 73%
A498; Log10 Concentration −7.0
  Mean Optical Densities: 2.087
  Percent Growth: 91%
A498; Log10 Concentration −8.0
  Mean Optical Densities: 2.413
  Percent Growth: 116%
A498; [1]
  CC50: > 100 µM
SN12C
  GI50: 1.57 µM
  TGI: 2.91E−06
SN12C; Log10 Concentration −4.0
  Mean Optical Densities: 0.224
  Percent Growth: −62%
SN12C; Log10 Concentration −5.0
  Mean Optical Densities: −0.014
  Percent Growth: −100%
SN12C; Log10 Concentration −6.0
  Mean Optical Densities: 1.045
  Percent Growth: 87%
SN12C; Log10 Concentration −7.0
  Mean Optical Densities: 0.998
  Percent Growth: 78%
SN12C; Log10 Concentration −8.0
  Mean Optical Densities: 1.050
  Percent Growth: 88%
NCI-H460
  GI50: 1.64 µM
  TGI: 3.04E−06
NCI-H460; Log10 Concentration −4.0
  Mean Optical Densities: 0.257
  Percent Growth: −20%
NCI-H460; Log10 Concentration −5.0
  Mean Optical Densities: 0.011
  Percent Growth: −97%
NCI-H460; Log10 Concentration −6.0
  Mean Optical Densities: 1.650
  Percent Growth: 90%
NCI-H460; Log10 Concentration −7.0
  Mean Optical Densities: 1.658
  Percent Growth: 91%
NCI-H460; Log10 Concentration −8.0
  Mean Optical Densities: 1.654
  Percent Growth: 91%
